One data set concerns Pkd1^flox/−:Ksp-Cre mice. Kind of data set: 2DG treatment of mice with cystic kidneys. The data set is classed as in vivo, mouse. The procedure: For proliferation assays immunostaining was carried our using an anti-Ki67 antibody followed by analysis. For cells, fluorescence was measured on triplicates of 300 cells using the microscope Axioplot (Zeiss). For kidney sections, pictures at 20× were taken using the camera Axio MRc5 (Zeiss) with the microscope Axioplan 2 (Zeiss), positive cells were counted on 6 sections for each group for each experiment using the ImageJ software.
(§1) Generation of Pkd1^flox/−:Ksp-Cre mice was previously described. Briefly, we crossed Pkd1^flox/flox29 and Pkd1^+/−: Ksp-Cre mice in pure C57/B16 genetic background. For treatments 2DG (Sigma-Aldrich) or vehicle (NaCl) were injected subcutaneously daily from P6 until P8 at 500 mg/kg.
(§2) 2DG (Sigma-Aldrich) or vehicle (NaCl) were injected subcutaneously daily from P6 until P8 at 500 mg/kg.
(§3) After sacrifice, kidneys were removed, washed in phosphate-buffered saline (PBS), weighed and fixed in 4% Para formaldehyde (PFA). After incubation in a sucrose in PBS gradient scale from 10% to 30% samples were incubated in 10% glycerol (Sigma) in a mixture of OCT (BIO-OPTICA) and sucrose 30%, finally embedded in OCT. Criostat sections were air-dried 1 h, rehydrated in PBS, incubated in Harris Hematoxylin 1:10 (Sigma Aldrich) for 2 min, washed, incubated in Eosin G (BIO-OPTICA) for 7 min, washed dehydrated and mounted in DEPEX (Sigma).
For Immunohistochemistry 10 μm cryosections were washed in Tween-0.1% in PBS (like all washes), fixed in PAF4%, permeabilized in Triton 0.1% in PBS, incubated in hydrogen peroxide 0.3% for 30 min, blocked for 1 h at room temperature with 5% Normal Goat Serum (Sigma Aldrich) 3% bovine serum albumin (BSA, Sigma) in phosphate-buffered saline, incubated O/N at 4° C. with the Antibody (ab) in blocking buffer diluted at 1:500. Sections were then incubated with the Dako EnVision+System-HRP (Dako). Staining is completed by an incubation with 3,3′ diaminobenzidine tetrahydrochloride (DAB) DAB+Substrate Chromogen System (DakoCytomation) and counterstained with Harris Hematoxylin (Sigma Aldrich). diluted 1/10 for 3 min.
A grid of squares 13.625 μm large was applied to sections of kidneys stained with Hematoxylin-Eosin. Each cross is marked with a dot, number of dots inside the lumen are counted on three litters (218 000 μm^2 for each). The degree of dilatation is determined according to Lu et al., 1999 ^32:1 dot: normal tubules; 2 dots: dilatated tubules; 3-9 dots: Small cysts; ≥10 dots: Cysts.

For data set [1], the system named is wt mice (ksp-cre: Pkd1^+/flox). Kind of data set: 2DG treatment of wt mice. The data set is classed as in vivo, mouse. To be noted: 2DG 500 mg/kg daily P6 to P8. The procedure: as §1, §2, §3
In data set [2] the test system is Pkd1^−/− MEFs. Description: Western blot of signalling phosphoproteins (pAMPK, pERK, pS6RP, pLKB1). The class given is cell-based, mouse.
Procedure: (§5) Antibodies anti-p-Akt 5473, anti-p-AMPK-Thr172; anti-AMPK, anti-p-S6RP Ser 235/236; anti-S6Rp; anti-p-ERK T202/Y204 and anti-ERK antibodies were from Cell Signaling Technology and used at 1:1000; anti-LC3 NB100 was from Novus Biologicals; anti-actin and anti-tubulin antibodies were from Sigma Aldrich and used at 1:5000. Anti-ki67 was from Novocastra and was used at 1:400. UO126 and rapamycin (Cell Signaling Technologies) were employed at final concentrations of 30 μM and 20 or 50 nM, respectively. AICAR and Metfomin (Sigma Aldrich) were used at the final concentration of 2 mM, oligomycin (Sigma Aldrich) was used at the final concentration of 30 μg/ml.
For western blot analysis, the cells were lysed [lysis buffer: 250 mM sucrose, 20 mM imidazole and 1 mM EDTA, pH 7.4, 0.5% Triton-X 100, supplemented with Protease Inhibitors Cocktail (Amersham) and phosphatase inhibitors (1 mM final of glycerophosphate, sodium orthovanadate and sodium fluoride)]. Total lysates were quantified and Laemmli buffer was added to reach a 1× final concentration. Proteins were resolved in a SDS-PAGE gel and transferred onto PVDF membranes. Next, 5% milk in TBS-T was used for blocking and for secondary antibody incubations, while 2% BSA in TBS-T was used for incubations with primary antibodies. HRP-conjugated secondary antibodies (from Roche) were visualized using the ECL System (Amersham), which were mixed with Super-Femto ECL System from Pierce when necessary.
Data set [3] concerns Pkd1^+/+ MEFs. To be noted: UO126.
Procedure: as §5
For western blot analysis, the cells were lysed [lysis buffer: 250 mM sucrose, 20 mM imidazole and 1 mM EDTA, pH 7.4, 0.5% Triton-X 100, supplemented with Protease Inhibitors Cocktail (Amersham) and phosphatase inhibitors (1 mM final of glycerophosphate, sodium orthovanadate and sodium fluoride)]. Total lysates were quantified and Laemmli buffer was added to reach a 1× final concentration. Proteins were resolved in a SDS-PAGE gel and transferred onto PVDF membranes. Next, 5% milk in TBS-T was used for blocking and for secondary antibody incubations, while 2% BSA in TBS-T was used for incubations with primary antibodies. […]
Another data set has as its system PKD mouse model. To be noted: Takiar et al. 2011; cited from earlier work.
Data set [4] deals with Pkd1^+/+ MEFs. Description: ATP content of MEFs after oligomycin. The class given is cell-based, mouse. As to conditions: oligomycin for 5 h, before treatment 102891+/−1042 RLU. How it is done:
For ATP content evaluation, whole-cell extracts of control and treated MEFs cells were prepared by suspending pellets in lysis buffer as described in Distefano et al, 2009. […] Medium of control and treated MEFs was taken after 24 h at 100% of confluence. The concentration of lactate using EnzyChrom™ L-lactate Assay Kit (BioAssay Systems) and quantified on the final number of cells.

Data set [5] has as its system Pkd1^+/+ MEFs. Kind of data set: Autophagosomes per cell by electron microscopy. The class given is cell-based, mouse. As to conditions: rapamycin 50 nM. How it is done:
(§4) Cell culture monolayers were fixed for 15 min at 4° C. with PAF 4% and 2.5% glutaraldehyde in 125 mM cacodylate buffer. The monolayers were detached by rubber and centrifuged at high speed. The pellet was post-fixed (1 hour) with 2% OsO4 in 125 mM cacodylate buffer, was washed, dehydrated and embedded in Epon. Conventional thin sections were collect on uncoated grids, stained with uranil and lead citrate and examined in a Leo912 electron microscope.

Data set [6] has as its system Pkd1^−/− MEFs. Description: Autophagosomes per cell by electron microscopy / autophagy. The class given is cell-based, mouse. To be noted: rapamycin 50 nM. The procedure:
as §4

[7] abbreviates: 2DG 500 mg/kg daily P6 to P8, genotype not stated.
The mark [8] stands for this setting: 2DG 500 mg/kg daily P6 to P8, treated vs untreated mutant kidneys.
Where [9] appears, read: cystic kidneys treated with 2DG.

The text below walks through data of US10478446B2, “Compounds for use in polycystic kidney disease” (FONDAZIONE CENTRO SAN RAFFAELE OFFICE OF BIOTECHNOLOGY …, priority 2012, dated 2019).

Entries after “also recorded” stand apart in the source; their conditions may differ.

Take `O=CC[C@@H](O)[C@H](O)[C@H](O)CO` [2DG, 2-deoxyglucose]: the “proliferation index in the cystic kidneys (Ki67 assay)” value with Pkd1^flox/−:Ksp-Cre mice (2DG 500 mg/kg daily P6 to P8, vs vehicle (NaCl)) was “decreased; also recorded: reduced”. Moreover, the “proliferation rates in the cyst lining epithelium (Ki67)” value with Pkd1^flox/−:Ksp-Cre mice (2DG 500 mg/kg daily P6 to P8, NaCl 28.48+/−5.39%) is 10.53+/−4.38%. Besides, in the data set on Pkd1^flox/−:Ksp-Cre mice (setting [7]), the “brain weight normalized by body weight” value is reported as “did not showed effect; also recorded: do not change” and the “liver weight normalized by body weight” value is recorded as “did not showed effect; also recorded: do not change”. Further, in the data set on Pkd1^flox/−:Ksp-Cre mice (2DG 500 mg/kg daily P6 to P8, mutant mice), the body weight result is “did not alter; also recorded: do not change”. Also, in the data set with Pkd1^flox/−:Ksp-Cre mice (setting [8]), the “number of normal and dilated tubules (cystic index)” value was “slightly reduced”; the “number of small cysts (cystic index)” value was “significantly reduced”. The “ratio of kidney weight on body weight” value in the data set on Pkd1^flox/−:Ksp-Cre mice (2DG 500 mg/kg daily subcutaneously P6 to P8, mutant mice, vs vehicle (NaCl)) was “effect of the treatment with the 2DG only on mutant animals; also recorded: significantly reduced”. Also, in the data set on Pkd1^flox/−:Ksp-Cre mice (setting [9]), the “number of cysts (cystic index)” value is reported as “significant decrease” and the “number of normal tubules (cystic index)” value is reported as “increased”. In data set [1], the body weight entry was “did not alter” and the kidney weight result was “did not affect”.

As to `NC(=O)c1ncn([C@@H]2O[C@H](CO)[C@@H](O)[C@H]2O)c1N` [AICAR, 5-aminoimidazole-4-carboxamide ribonucleoside], in the data set with Pkd1^−/− MEFs [2] (AICAR (1 mM)), the pAMPK levels result is reported as “restored; also recorded: increased” and the pERK entry is reported as “restored to baseline levels; also recorded: inhibited”.

For `N#CC(=C(/N)Sc1ccccc1N)/C(C#N)=C(/N)Sc1ccccc1N` [UO126], the “pLKB1 levels (LKB1 phosphorylation at 5428)” value in the data set on Pkd1^+/+ MEFs [3] was “reduced”. Also, in the data set on Pkd1^−/− MEFs [2] (30 μM UO126 for 12 h), the pAMPK entry is “enhances”, the pERK entry was “restores normal” and the pS6RP entry is “restores normal”. For the same compound, the “pLKB1 levels (LKB1 phosphorylation at 5428)” value with Pkd1^−/− MEFs [2] (UO126, Pkd1^−/− MEFs) is “reduced”.

Turning to `CN(C)C(=N)N=C(N)N` [metformin], the cyst expansion result in the data set on PKD mouse model was “effectively reduce”. In the data set with Pkd1^−/− MEFs [2] (metformin (2 mM)), the pAMPK levels entry was “restored; also recorded: increased” and the pERK result is “restored to baseline levels; also recorded: inhibited”.

As for `CC[C@H]1/C=C/C=C/C[C@@H](C)[C@H](O)[C@@](C)(O)C(=O)[C@@H](C)[C@H](O)[C@@H](C)C(=O)[C@@H](C)[C@H](O)[C@@H](C)/C=C/C(=O)O[C@@H]2[C@H](C)[C@H](CC1)O[C@]1(CC[C@H](C)[C@H](C[C@@H](C)O)O1)[C@H]2C` [oligomycin], in the data set with Pkd1^+/+ MEFs [4], the ATP content result is listed as “decreased”.

Turning to `CO[C@H]1C[C@@H]2CC[C@@H](C)[C@@](O)(O2)C(=O)C(=O)N2CCCC[C@H]2C(=O)O[C@H]([C@H](C)C[C@@H]2CC[C@@H](O)[C@H](OC)C2)CC(=O)[C@H](C)/C=C(\C)[C@@H](O)[C@@H](OC)C(=O)[C@H](C)C[C@H](C)/C=C/C=C/C=C/1C` [rapamycin], the “number of autophagosomes per cells evaluated by EM” value was 2.87+/−0.55 a.u in the data set on Pkd1^+/+ MEFs [5] and 0.96+/−0.18 a.u in the data set with Pkd1^−/− MEFs [6].
